This note sets out measurements from US9642874B2, “Compositions of selenoorganic compounds and methods of use thereof” (Alltech, Inc., priority 2014, dated 2017).

One assay concerns G6pc. Kind of assay: G6pc mRNA expression (QRT-PCR) in primary mouse hepatocytes. It counts as cell-based. The method, then: (§1) The overnight-acclimated hepatocytes were washed twice with PBS (to remove any residual FBS and other additives in the TRL hepatocyte maintenance medium, pretreated with control (water) or selenium Compounds CDE (150 or 300 ppb of each selenium compound) in DMEM/F12 media supplemented with 10% fetal bovine serum (FBS) for 24 hr. These cells were then washed twice with PBS and incubated with the same dose of selenium Compounds CDE (150 or 300 ppb) in the presence or absence of insulin (10 or 100 nM, Sigma), 0.1 mM 8-CPT (Sigma) or 0.5 μM Dex (Sigma) in serum-free and glucose-free DMEM media (Invitrogen) supplemented with 20 mM lactose (Sigma) and 2 mM pyruvate (Sigma) and 15 mM HEPES (Sigma) for another 6 hours. After treatments, cell media were collected and subjected to glucose assay and toxicological studies of lactate dehydrogenase (LDH) and cells were collected for RNA and protein analysis.
Total RNA from these cells was isolated using Trizol (Invitrogen) according to the Manufacturer's protocol and then incubated with DNase I to remove any potential contaminated genomic DNA. Then RNA samples were subjected to real-time PCR analysis using the Applied-Bioscience's RT kit and predesigned Taqman probes (Invitrogen), as described previously (Lan et al EMBO J 2003). Three to four samples were analyzed in each treatment group. […]

The next assay has as its system Foxo1. Kind of assay: Western blot of pFoxo1T24 in primary mouse hepatocytes. Format: cell-based. Conditions: 100 nM insulin 6 hours, or Compounds CDE both doses 24 hours + 6 hours. The method, then: as §1, with “After treatments, cell media were collected and subjected to glucose assay and toxicological studies of lactate dehydrogenase (LDH) and cells were collected for RNA and protein analysis.” left out
After the above described treatments, primary mouse hepatocytes were rinsed with ice-cold PBS and lysed in the ice-cold RIPA buffer containing complete proteinase and phosphatase inhibitors (Thermo-Fisher Scientific, Waltham, Mass.) on ice for 30 min Cell lysates were collected using a cell scraper and transfer pipette and then centrifuged at 12000×g for 30 min at 4° C. to remove the DNA pellet and obtain the protein extract. Protein levels in the supernatant of these cell lysates were determined using the Pierce Micro-BCA protein assay kit (Thermo Scientific-Piece Biotechnology, Rockford, Ill.) according to the manufacturer's protocol. […]

Take “insulin: insulin (10 or 100 nM, Sigma) used as comparator and cotreatment”: in the assay with G6pc (insulin 10 and 100 nM, vs 8-CPT/Dex group), the “8-CPT/Dex-induced G6pc expression” value is on record as “significantly decreased 8-CPT/Dex-induced G6pc expression”. For the same substance, the G6pc expression result with G6pc (insulin alone (10 and 100 nM), 6 hours) was “significantly inhibited G6pc expression”. In the assay on Foxo1, the “pFoxo1T24 protein level (in words)” value is “significant increase”.
